Results published in the NIST ThermoML archive (doi:10.1021/je300405a).

Conditions: Liquid; for mass density: Vibrating tube method; for speed of sound: Pulse-echo method

CCCCCCCCCC(=O)OC [methyl decanoate]
Conditions | mass density, 343.15 K [kg/m3] | mass density, 353.15 K [kg/m3] | mass density, 363.15 K [kg/m3] | mass density, 373.15 K [kg/m3] | mass density, 383.15 K [kg/m3] | mass density, 393.15 K [kg/m3] | speed of sound, 343.15 K [m/s] | speed of sound, 363.15 K [m/s] | speed of sound, 383.15 K [m/s] | speed of sound, 403.15 K [m/s]
101.3 kPa | – | 822.35 | 814.51 | 805.43 | 797.49 | 788.67 | – | – | – | –
10000 kPa | – | 831.43 | 823.75 | 816.05 | 808.37 | 800.06 | – | 1138.5 | 1077.4 | 1017.7
20000 kPa | – | 839.8 | 832.39 | 825.16 | 818.07 | 810.12 | – | 1195.9 | 1138.6 | 1083.2
30000 kPa | – | 847.35 | 840.33 | 833.45 | 826.67 | 819.15 | – | 1247.9 | 1193.5 | 1141.7
40000 kPa | – | 854.31 | 847.71 | 841.07 | 834.58 | 827.46 | – | 1296.3 | 1244.5 | 1194.7
50000 kPa | – | 860.82 | 854.36 | 848.03 | 841.72 | 834.97 | – | 1341.1 | 1291.3 | 1242.9
60000 kPa | – | 866.96 | 860.65 | 854.82 | 848.65 | 842.04 | – | 1382.7 | 1334.9 | 1288.1
70000 kPa | 879.04 | 872.65 | 866.47 | 860.9 | 855.07 | 848.64 | – | 1421.6 | 1375.4 | 1330.6
80000 kPa | 884.27 | 878.11 | 872.03 | 866.94 | 861.06 | 854.73 | 1508.2 | 1458.4 | 1414.2 | 1370.3
90000 kPa | 889.44 | 883.27 | 877.31 | 872.3 | 866.74 | 860.61 | 1541.7 | 1493.8 | 1450.6 | 1407.7
100000 kPa | 894.26 | 888.25 | 882.47 | 877.6 | 872.09 | 866.13 | 1574.1 | 1527.4 | 1485.3 | 1442.8
110000 kPa | – | – | – | – | – | – | 1606 | 1559.7 | 1518.9 | 1476.6
120000 kPa | – | – | – | – | – | – | 1636.2 | 1590.9 | 1550.9 | 1509.7
130000 kPa | – | – | – | – | – | – | 1665.9 | 1620.7 | 1581.2 | 1541.7
140000 kPa | – | – | – | – | – | – | 1694 | 1649.4 | 1610.8 | 1571.6
150000 kPa | – | – | – | – | – | – | 1721.2 | 1677.2 | 1641 | 1600.1
170000 kPa | – | – | – | – | – | – | 1773.2 | 1730.6 | 1692.7 | 1655.5
190000 kPa | – | – | – | – | – | – | 1822 | 1780.4 | 1743 | 1706.6
210000 kPa | – | – | – | – | – | – | 1868.7 | 1827.2 | 1791.1 | 1754.5
